Like-named read-outs stand apart in the source and are kept apart here.
Legend:
[1] = Screening of CDs and CD derivatives for ability to dissolve cholesterol in water (HPLC); format: physicochemical; details: for Concentrations of Cholesterol in CDs Solution: 5 days at ambient, ND = not detectable
Protocol: Purpose: To determine the level of cholesterol that can be dissolved in water when 10 different CDs and their derivatives were added at three concentrations.
All CD solutions were prepared with starting 20% (w/v) solutions by accurately adding about 800 mg CDs in 4 milliliter water, 1% and 10% were diluted from this 20% solution to 2 mL for each sample preparation experiment.
Cholesterol was added accurately to all CD water solutions at about 40 mg/mL or about 80 mg per 2 mL. This amount of cholesterol was enough to fully saturate the CD solutions with white settlements or floating or both. All samples were conditioned at ambient by shaking using a rotator for 5 days.
After the equilibration with shaking for 5 days at ambient, the clear or semi-clear portion was filtered with 0.2 μm filter. 50 μL of the filtered solution was diluted with 450 μL methanol (10×) for HPLC analysis. NOVAPAK phenyl column (7.6 cm by 3.9 mm I.D.) was used with a mobile phase of acetonitrile: water (70:30) at a flow rate of 0.5 ml/min and detection at UV at 210 nm.

[2] = cited from earlier work; for Ability to form soluble complex with cholesterol in aqueous solution (in words): 37° C., CDs 1.0 × 10^−2 M; for Absorbance (600 nm), increase due to cholesterol dissolved by CDs: aqueous solution at 37° C., concentration of CDs 1.0 × 10^−2 M
[3] = tested on: Patients with Primary or Recurrent Pterygium
Protocol: A Phase 2a Multicenter, Randomized, Vehicle-Controlled, Dose Escalating Study was carried out to evaluate the Safety, Efficacy and Pharmacokinetics of Nintedanib Ophthalmic Solution in Patients with Primary or Recurrent Pterygium. The multicenter, randomized, double-masked, vehicle-controlled, parallel study was conducted with 28 days three times a day (TID) repeat ocular dosing of vehicle and 0.2% nintedanib, followed by 5-month post-dosing observation.
Pterygium patients often have meibomian gland atrophy and clinical signs and symptoms of MGD, including ocular pain, itchy, foreign body sensation, redness, sensitivity to light and […]. In the Phase II clinical trial, pterygia patients were asked 15 questions on ocular symptom, vision-related functioning and quality of life via Pterygium Symptom and Life Quality (PSLQ) questionnaires.
PSLQ analyses were performed for 4 average category scores; Overall, Ocular Symptoms, Vision-Related Functioning, and Quality of Life Impact.

[4] = tested on: pterygium patients with dry eye or with no dry eye; experiment: PSLQ ocular symptom score, further analysis by dry eye condition; format: in vivo, human; details: any timepoint
From the text: These ocular symptoms are often observed in MGD patients. Scores of these symptoms were graded by patients as part of PSLQ questionnaires. (1) Dry eye patients vs. Non-dry eye patients (based upon patients' medical history) with the combined nintedanib-treated and vehicle-treated groups. […] The pterygium patients with dry eye condition was compared with pterygium patients with no dry eye condition. In this comparison, all pterygium patients with dry eye condition in the drug and vehicle treated group was combined and the same was done for pterygium patients with no dry eye condition. Number of data points for each group were N=17 for dry eye and N=18 for no dry eye. […] Pterygium patients with dry eye condition had higher baseline score and had bigger reduction from baseline of ocular symptom score during treatment period when compared to pterygium patients with no dry eye condition. (2) Nintedanib vs. Vehicle for dry eye patients (based upon patients' medical history).

2-Hydroxypropyl-beta-cyclodextrin [2-HP-β-CD]
Ability to dissolve cholesterol in water (in words) [1]: substantial ability to dissolve cholesterol | Concentrations of Cholesterol in CDs Solution ([1]; CD 1% (w/v) in water): 10000 ng/mL | Concentrations of Cholesterol in CDs Solution ([1]; CD 10% (w/v) in water): 820000 ng/mL | Ability to form soluble complex with cholesterol in aqueous solution (in words) [2]: weak ability | Absorbance (600 nm), increase due to cholesterol dissolved by CDs [2]: 0.01 | PSLQ scores compared to the baseline (in words) ([3]; 2-HP-β-CD-treated group): significant improvements | PSLQ Average Vision-Related Functioning Score, Mean ([3]; Baseline, N = 23, SD 0.80, Modified Intent-to-Treat Population): 0.57 | PSLQ Average Vision-Related Functioning Score, Change from Baseline, Mean ([3]; Week 2, N = 23, SD 0.65, p-value 0.067 (one sample t-test)): −0.27 | PSLQ Average Vision-Related Functioning Score, Change from Baseline, Mean ([3]; Week 4, N = 23, SD 0.65, p-value 0.003): −0.48 | PSLQ Average Vision-Related Functioning Score, Change from Baseline, Mean ([3]; Week 8, N = 23, SD 0.62, p-value 0.004): −0.43 | PSLQ Average Vision-Related Functioning Score, Change from Baseline, Mean ([3]; Week 16, N = 23, SD 0.56, p-value 0.08): −0.23 | PSLQ Average Vision-Related Functioning Score, Change from Baseline, Mean ([3]; Week 24, N = 23, SD 1.1, p-value 0.617): −0.11

2-hydroxypropyl-alpha-cyclodextrin [HP-ACD, reference compound]
Ability to dissolve cholesterol in water (in words) [1]: no detectable cholesterol dissolving activity

2-hydroxypropyl-gamma-cyclodextrin [HP-GCD, reference compound]
Ability to dissolve cholesterol in water (in words) [1]: extremely low levels | Concentrations of Cholesterol in CDs Solution ([1]; CD 10% (w/v) in water): 3000 ng/mL | Concentrations of Cholesterol in CDs Solution ([1]; CD 20% (w/v) in water): 11000 ng/mL

OC[C@H]1O[C@H](O[C@H]2[C@H](O)[C@@H](O)[C@@H](OC[C@H]3O[C@@H]4O[C@H]5[C@H](O)[C@@H](O)[C@@H](O[C@H]6[C@H](O)[C@@H](O)[C@@H](O[C@H]7[C@H](O)[C@@H](O)[C@@H](O[C@H]8[C@H](O)[C@@H](O)[C@@H](O[C@H]9[C@H](O)[C@@H](O)[C@@H](O[C@H]%10[C@H](O)[C@@H](O)[C@@H](O[C@H]3[C@H](O)[C@H]4O)O[C@@H]%10CO)O[C@@H]9CO)O[C@@H]8CO)O[C@@H]7CO)O[C@@H]6CO)O[C@@H]5CO)O[C@@H]2CO)[C@H](O)[C@@H](O)[C@@H]1O [6-AM-BCD, 6-O-alpha-maltosyl-beta-cyclodextrin]
Ability to dissolve cholesterol in water (in words) [1]: about half lower | Concentrations of Cholesterol in CDs Solution ([1]; CD 1% (w/v) in water): 30000 ng/mL

OC[C@H]1O[C@@H]2O[C@H]3[C@H](O)[C@@H](O)[C@@H](O[C@H]4[C@H](O)[C@@H](O)[C@@H](O[C@H]5[C@H](O)[C@@H](O)[C@@H](O[C@H]6[C@H](O)[C@@H](O)[C@@H](O[C@H]7[C@H](O)[C@@H](O)[C@@H](O[C@H]1[C@H](O)[C@H]2O)O[C@@H]7CO)O[C@@H]6CO)O[C@@H]5CO)O[C@@H]4CO)O[C@@H]3CO [ACD, alpha-cyclodextrin]
Ability to form soluble complex with cholesterol in aqueous solution (in words) [2]: do not form soluble complexes with cholesterol | Absorbance (600 nm), increase due to cholesterol dissolved by CDs [2]: 0

OC[C@H]1O[C@@H]2O[C@H]3[C@H](O)[C@@H](O)[C@@H](O[C@H]4[C@H](O)[C@@H](O)[C@@H](O[C@H]5[C@H](O)[C@@H](O)[C@@H](O[C@H]6[C@H](O)[C@@H](O)[C@@H](O[C@H]7[C@H](O)[C@@H](O)[C@@H](O[C@H]8[C@H](O)[C@@H](O)[C@@H](O[C@H]1[C@H](O)[C@H]2O)O[C@@H]8CO)O[C@@H]7CO)O[C@@H]6CO)O[C@@H]5CO)O[C@@H]4CO)O[C@@H]3CO [BCD, beta-cyclodextrin]
Ability to form soluble complex with cholesterol in aqueous solution (in words) [2]: do not form soluble complexes with cholesterol

COC[C@H]1O[C@@H]2O[C@H]3[C@H](O)[C@@H](OC)[C@@H](O[C@H]4[C@H](O)[C@@H](OC)[C@@H](O[C@H]5[C@H](O)[C@@H](OC)[C@@H](O[C@H]6[C@H](O)[C@@H](OC)[C@@H](O[C@H]7[C@H](O)[C@@H](OC)[C@@H](O[C@H]8[C@H](O)[C@@H](OC)[C@@H](O[C@H]1[C@H](O)[C@H]2OC)O[C@@H]8COC)O[C@@H]7COC)O[C@@H]6COC)O[C@@H]5COC)O[C@@H]4COC)O[C@@H]3COC [DM-BCD, heptakis (2,6-di-O-methyl)-beta-cyclodextrin]
Ability to dissolve cholesterol in water (in words) [1]: the best | Absorbance (600 nm), increase due to cholesterol dissolved by CDs [2]: 0.336

OC[C@H]1O[C@@H]2O[C@H]3[C@H](O)[C@@H](O)[C@@H](O[C@H]4[C@H](O)[C@@H](O)[C@@H](O[C@H]5[C@H](O)[C@@H](O)[C@@H](O[C@H]6[C@H](O)[C@@H](O)[C@@H](O[C@H]7[C@H](O)[C@@H](O)[C@@H](O[C@H]8[C@H](O)[C@@H](O)[C@@H](O[C@H]9[C@H](O)[C@@H](O)[C@@H](O[C@H]1[C@H](O)[C@H]2O)O[C@@H]9CO)O[C@@H]8CO)O[C@@H]7CO)O[C@@H]6CO)O[C@@H]5CO)O[C@@H]4CO)O[C@@H]3CO [GCD, gamma-cyclodextrin]
Ability to form soluble complex with cholesterol in aqueous solution (in words) [2]: do not form soluble complexes with cholesterol | Absorbance (600 nm), increase due to cholesterol dissolved by CDs [2]: 0

COC(=O)c1ccc2c(c1)NC(=O)/C2=C(\Nc1ccc(N(C)C(=O)CN2CCN(C)CC2)cc1)c1ccccc1 [Nintedanib 0.2%, nintedanib]
PSLQ ocular symptom score, Nintedanib 0.2% vs Vehicle (in words) [4]: no statistically significant differences

random methyl-beta-cyclodextrin [M-BCD]
Ability to dissolve cholesterol in water (in words) [1]: the best | Concentrations of Cholesterol in CDs Solution ([1]; CD 1% (w/v) in water): 150000 ng/mL

sulfobutylated beta-cyclodextrin [SBE-BCD]
Concentrations of Cholesterol in CDs Solution ([1]; CD 1% (w/v) in water): 2000 ng/mL | Concentrations of Cholesterol in CDs Solution ([1]; CD 10% (w/v) in water): 30000 ng/mL | Concentrations of Cholesterol in CDs Solution ([1]; CD 20% (w/v) in water): 150000 ng/mL
